Measured values as given in article PMC10136135, “Electronic Circular Dichroism Detects Conformational Changes Associated with Proteasome Gating Confirmed Using AFM Imaging” (Biomolecules, 2023).
Where a SMILES comes first, the peptide text is derived from it.

Key:
[1] = test system: T1, yWT20S / y20S WT (wild type yeast 20S proteasome); assay: ECD spectral change (difference spectrum); format: binding, Saccharomyces cerevisiae; settings: 25 nM 20S, 150 mM Tris, 100 mM NaCl, pH 7.6, 22 °C; H2T4 1 µM in text, 10 µM in figure legend; allosteric, gate opening
T1 construct: gene SCL1; 20S core particle, 28 subunits (alpha-beta-beta-alpha heptameric rings); with Proteasome subunit beta type-1; Proteasome subunit beta type-2; Proteasome subunit beta type-3; Proteasome subunit beta type-4; Proteasome subunit beta type-5; Proteasome subunit beta type-6; Proteasome subunit beta type-7

[2] = test system: T2, h20S (human 20S proteasome); assay: AFM imaging of gate conformers; also ECD shift; format: binding; settings: 5 mM Tris-HCl pH 7; at least 15 min after addition; control 7 ± 1% open; ECD at 1 µM, 25 nM h20S, pH 7.6, 22 °C; allosteric, gate opening
T2 construct: gene PSMA1; 20S core particle, 28 subunits (alpha-beta-beta-alpha heptameric rings); commercial, Enzo Life Sciences (AFM); H2T4 at the alpha ring gate, Suc-LLVY-MCA at the beta5 (ChT-L) site; with Proteasome subunit beta type-6; Proteasome subunit beta type-7; Proteasome subunit beta type-3; Proteasome subunit beta type-2; Proteasome subunit beta type-1; Proteasome subunit beta type-4

[3] = test system: T2, h20S (human 20S proteasome); assay: AFM imaging of gate conformers; format: binding; settings: 5 mM Tris-HCl pH 7, 1% DMSO; beta5 (ChT-L) site

SMILES | ECD spectral change (difference spectrum) [1] | % open conformers at 0.2 μM [2] [%] | % open conformers at 100 μM [3]
C[n+]1ccc(-c2c3nc(c(-c4cc[n+](C)cc4)c4ccc([nH]4)c(-c4cc[n+](C)cc4)c4nc(c(-c5cc[n+](C)cc5)c5ccc2[nH]5)C=C4)C=C3)cc1 [H2T4, 5,10,15,20-tetrakis-4-N-methylpirydyl porphyrin] | the addition of H2T4 induces changes in the ECD spectra of yWT20S | 22 ± 1.3 | 
Cc1cc(=O)oc2cc(NC(=O)[C@H](Cc3ccc(O)cc3)NC(=O)[C@@H](NC(=O)[C@H](CC(C)C)NC(=O)[C@H](CC(C)C)NC(=O)CCC(=O)O)C(C)C)ccc12 [SucLLVY-MCA, succinyl-LeuLeuValTyr-7-amino-4-methylcoumarin] (HELM PEPTIDE1{[O=C(O)CCC(=O)[*:2]].L.L.V.Y.[Cc1cc(=O)oc2cc(N[*:1])ccc12]}$$$$V2.0) |  |  | addition of the model substrate or the porphyrin ligand shifted the conformational equilibrium
